Assay results: patent publication US12643887B2, “Heterocyclic derivatives with cardiomyocyte proliferation activity for treatment of heart diseases” (Tongji University, priority 2019, dated 2026)
Where two headings read alike, the source gives them in different places.

Assays:
[1] = molecular target: T1, human GSK3 beta (Homo sapiens, UniProt P49841); assay: GSK3 beta enzyme assay (ADP-Glo); format: biochemical; settings: ATP 25 μM, read-out: GSK3b IC50
T1 construct: Recombinant full-length human GSK3 beta (expressed in Sf9 insect cells with an N-terminal His tag); His (N); purchased SignalChem G09-10H; host or cells: Sf9 insect cells
T1 sequence (P49841 whole entry): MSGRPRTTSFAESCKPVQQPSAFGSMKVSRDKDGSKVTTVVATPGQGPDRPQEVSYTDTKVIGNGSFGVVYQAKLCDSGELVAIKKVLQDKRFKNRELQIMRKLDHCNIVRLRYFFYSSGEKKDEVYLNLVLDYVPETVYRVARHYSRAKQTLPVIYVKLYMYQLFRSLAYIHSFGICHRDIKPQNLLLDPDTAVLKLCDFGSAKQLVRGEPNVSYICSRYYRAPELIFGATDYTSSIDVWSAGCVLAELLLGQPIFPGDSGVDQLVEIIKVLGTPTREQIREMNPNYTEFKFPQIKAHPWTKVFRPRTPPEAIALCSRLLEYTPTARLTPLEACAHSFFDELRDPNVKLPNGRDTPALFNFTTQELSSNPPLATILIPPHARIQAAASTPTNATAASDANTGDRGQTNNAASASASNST
Summary of the method: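 Full-length His-tagged human GSK3β from Sf9 cells (4 nM) preincubated 30 min at 25 °C with inhibitor in Tris pH 7.5/MgCl2/BSA/DTT, then reacted 60 min at 25 °C with 13 μM substrate peptide and 25 μM ATP. ADP measured by ADP-Glo luminescence; IC50 from four-parameter logistic fit of % inhibition.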

[2] = molecular target: T2, human HIPK2 (Homo sapiens, UniProt Q9H2X6); assay: HIPK2 enzyme assay (ADP-Glo); format: biochemical
T2 construct: Recombinant human HIPK2 (1-640); GST (N); purchased SignalChem H04-11BG; host or cells: Sf9 insect cells
T2 sequence (Q9H2X6 1-640): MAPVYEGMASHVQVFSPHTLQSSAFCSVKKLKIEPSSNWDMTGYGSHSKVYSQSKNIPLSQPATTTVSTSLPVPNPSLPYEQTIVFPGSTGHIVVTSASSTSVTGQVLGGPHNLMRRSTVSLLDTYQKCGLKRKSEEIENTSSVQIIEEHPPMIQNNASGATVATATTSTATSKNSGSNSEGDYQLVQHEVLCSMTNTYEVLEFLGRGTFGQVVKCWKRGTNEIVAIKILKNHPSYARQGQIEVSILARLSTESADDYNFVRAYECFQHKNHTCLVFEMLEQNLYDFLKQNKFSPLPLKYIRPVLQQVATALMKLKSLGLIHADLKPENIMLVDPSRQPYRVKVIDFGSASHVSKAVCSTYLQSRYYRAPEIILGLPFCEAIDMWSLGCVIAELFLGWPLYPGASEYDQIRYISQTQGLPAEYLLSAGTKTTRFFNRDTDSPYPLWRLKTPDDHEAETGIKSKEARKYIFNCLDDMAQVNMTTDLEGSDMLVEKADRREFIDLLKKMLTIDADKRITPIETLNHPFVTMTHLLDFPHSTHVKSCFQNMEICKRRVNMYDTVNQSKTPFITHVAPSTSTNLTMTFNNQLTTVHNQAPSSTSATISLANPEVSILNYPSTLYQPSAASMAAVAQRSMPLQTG
Summary of the method: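 GST-tagged HIPK2 (1-640) from Sf9, 1 nM, preincubated 30 min at 25° C with inhibitor in 40 mM Tris pH 7.5, 20 mM MgCl2. Reaction ran 90 min at 25° C with GST-MBP substrate at 0.05 mg/ml and 5 μM ATP. ADP-Glo luminescence; IC50 by four-parameter logistic fit.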

[3] = ADP-Glo, ATP 5 μM, read-out: HIPK2 IC50

| IC50 [1] | IC50 [2, 3] | SMILES | IC50 [2] |
| --- | --- | --- | --- |
| > 10000 nM | > 10000 nM | O=C1NC(Nc2ccc3sccc3c2)=N/C1=C\c1ccc2ncsc2c1 [Example 101, (Z)-2-(benzo[b]thiophen-5-ylamino)-5-(benzo[d]thiazol-6-ylmethylene)-3,5-dihydro-4H-imidazol-4-one] | – |
| 1000 to 10000 nM | > 10000 nM | CN(C1=N/C(=C\c2ccc3ncccc3c2)C(=O)N1)c1ccc2ncsc2c1 [Example 85, (Z)-2-(benzo[d]thiazol-6-yl(methyl)amino)-5-(quinolin-6-ylmethylene)-3,5-dihydro-4H-imidazol-4-one] | – |
| 1000 to 10000 nM | < 100 nM | O=C1NC(Nc2ccc3nc[nH]c3c2)=N/C1=C\c1ccc2ncsc2c1 [Example 97, (Z)-2-((1H-benzo[d]imidazol-6-yl)amino)-5-(benzo[d]thiazol-6-ylmethylene)-3,5-dihydro-4H-imidazol-4-one] | – |
| > 10000 nM | 100 to 1000 nM | O=C1NC(N(Cc2ccccc2)c2ccc3ncsc3c2)=N/C1=C\c1ccc2ncsc2c1 [Example 99, (Z)-2-(benzo[d]thiazol-6-yl(benzyl)amino)-5-(benzo[d]thiazol-6-ylmethylene)-3,5-dihydro-4H-imidazol-4-one] | – |
| 1000 to 10000 nM | 1000 to 10000 nM | CN(C1=N/C(=C\c2ccc3ncsc3c2)C(=O)N1)c1ccc2c(c1)ncn2C [Example 86, (Z)-5-(benzo[d]thiazol-6-ylmethylene)-2-(methyl(1-methyl-1H-benzo[d]imidazol-5-yl)amino)-3,5-dihydro-4H-imidazol-4-one] | – |
| 1000 to 10000 nM | > 10000 nM | O=C1NC(=S)N/C1=C\c1ccc2sccc2c1 [Example 96, (Z)-5-(benzo[b]thiophen-5-ylmethylene)-2-thioxoimidazolidin-4-one] | – |
| 1000 to 10000 nM | 100 to 1000 nM | COCCN(C1=N/C(=C\c2ccc3ncsc3c2)C(=O)N1)c1ccc2ncsc2c1 [Example 89, (Z)-2-(benzo[d]thiazol-6-yl(2-methoxyethyl)amino)-5-(benzo[d]thiazol-6-ylmethylene)-3,5-dihydro-4H-imidazol-4-one] | – |
| > 10000 nM | > 10000 nM | O=C1NC(Nc2ccc3ncsc3c2)=N/C1=C\c1ccc2nccnc2c1 [Example 94, (Z)-2-(benzo[d]thiazol-6-ylamino)-5-(quinoxalin-6-ylmethylene)-3,5-dihydro-4H-imidazol-4-one] | – |
| > 10000 nM | > 10000 nM | O=C1NC(Nc2ccc3ncsc3c2)=N/C1=C\c1ccc2cn[nH]c2c1 [Example 95, (Z)-5-((1H-indazol-6-yl)methylene)-2-(benzo[d]thiazol-6-ylamino)-3,5-dihydro-4H-imidazol-4-one] | – |
| 100 to 1000 nM | 100 to 1000 nM | CC(C)Nc1nc2ccc(NC3=N/C(=C\c4ccc5ncsc5c4)C(=O)N3)cc2s1 [Example 100, (Z)-5-(benzo[d]thiazol-6-ylmethylene)-2-((2-(isopropylamino)benzo[d]thiazol-6-yl)amino)-3,5-dihydro-4H-imidazol-4-one] | – |
| > 10000 nM | > 10000 nM | CN1C(=O)/C(=C/c2ccc3ncsc3c2)N=C1Nc1ccc2ncsc2c1 [Example 88, (Z)-2-(benzo[d]thiazol-6-ylamino)-5-(benzo[d]thiazol-6-ylmethylene)-3-methyl-3,5-dihydro-4H-imidazol-4-one] | – |
| 100 to 1000 nM | 100 to 1000 nM | Cn1cnc2ccc(NC3=N/C(=C\c4ccc5ncsc5c4)C(=O)N3)cc21 [Example 93, (Z)-5-(benzo[d]thiazol-6-ylmethylene)-2-((1-methyl-1H-benzo[d]imidazol-6-yl)amino)-3,5-dihydro-4H-imidazol-4-one] | – |
| > 10000 nM | > 10000 nM | CN(C1=N/C(=C\c2ccc3[nH]ccc3c2)C(=O)N1)c1ccc2ncsc2c1 [Example 87, (Z)-5-((1H-indol-5-yl)methylene)-2-(benzo[d]thiazol-6-yl(methyl)amino)-3,5-dihydro-4H-imidazol-4-one] | – |
| 100 to 1000 nM | 100 to 1000 nM | O=C1NC(Nc2ccc3ncsc3c2)=N/C1=C\c1cncs1 [Example 92, (Z)-2-(benzo[d]thiazol-6-ylamino)-5-(thiazol-5-ylmethylene)-3,5-dihydro-4H-imidazol-4-one] | – |
| – | – | CC(=O)N(C1=N/C(=C\c2ccc3c(c2)OCO3)C(=O)N1)c1ccccc1 [Example 5, (Z)—N-(4-(benzo[d][1,3]dioxol-5-ylmethylene)-5-oxo-4,5-dihydro-1H-imidazol-2-yl)-N-phenylacetamide] | 1000 to 10000 nM |
| > 10000 nM | < 100 nM | Cc1nc2ccc(NC3=N/C(=C\c4ccc5ncsc5c4)C(=O)N3)cc2s1 [Example 90, (Z)-5-(benzo[d]thiazol-6-ylmethylene)-2-((2-methylbenzo[d]thiazol-6-yl)amino)-3,5-dihydro-4H-imidazol-4-one] | – |

| SMILES | IC50 [1] | IC50 [2, 3] | IC50 [2] |
| --- | --- | --- | --- |
| CC(=O)N(C1=N/C(=C\c2ccc3ncsc3c2)C(=O)N1)c1ccc2ncsc2c1 [Example 91, (Z)—N-(benzo[d]thiazol-6-yl)-N-(4-(benzo[d]thiazol-6-ylmethylene)-5-oxo-4,5-dihydro-1H-imidazol-2-yl)acetamide] | > 10000 nM | < 100 nM | – |
| Nc1ccc(NC2=N/C(=C\c3ccc4ncsc4c3)C(=O)N2)cc1 [Example 98, (Z)-2-((4-aminophenyl)amino)-5-(benzo[d]thiazol-6-ylmethylene)-3,5-dihydro-4H-imidazol-4-one] | 100 to 1000 nM | 100 to 1000 nM | – |
| CCN(C1=N/C(=C\c2ccc3c(c2)OCO3)C(=O)N1)c1ccccc1 [Example 4, (Z)-5-(benzo[d][1,3]dioxol-5-ylmethylene)-2-(ethyl(phenyl)amino)-3,5-dihydro-4H-imidazol-4-one] | – | > 10000 nM | – |
